From US10081630B2, “Radioactive halogen-labeled pyrido [1,2-A] benzimidazole derivative compound” (KYOTO UNIVERSITY, priority 2015, dated 2018)

How the values were obtained:
[1] = test system: tau accumulated in the brain with AD; experiment: In vitro autoradiography using autopsied brain tissue of Alzheimer's disease patient; type: binding, human
Method: (Evaluation 1) In Vitro Autoradiography Using Autopsied Brain Tissue of Alzheimer's Disease Patient (1) In Vitro Autoradiography
Autopsied brain tissue sections of an Alzheimer's disease (AD) patient (sections from a frontal lobe site and a temporal lobe site, 6 μm) were used, which were provided from Graduate School of Medicine, Kyoto University and National Cerebral and Cardiovascular Center Hospital. Deparaffinization treatment was performed by washing with xylene (15 min×2), ethanol (1 min×2), a 90 vol % aqueous ethanol solution (1 min×1), an 80 vol % aqueous ethanol solution (1 min×1), a 70 vol % aqueous ethanol solution (1 min×1), and purified water (2.5 min×2). A 10 vol % aqueous ethanol solution of each radioactive iodine-labeled BIP derivative compound (370 kBq/mL) obtained by the method shown in Example 7 was added thereto, and the tissue sections were incubated at room temperature for 2 hours. The tissue sections were washed with a 50 vol % aqueous ethanol solution (1 hr×1), then exposed to an imaging plate (BAS-SR2025 manufactured by Fujifilm Corp.), and analyzed using a bioimaging analyzer (bioimaging analyzer BAS-5000 manufactured by Fujifilm Corp.). Multi Gauge manufactured by Fujifilm Corp. was used in quantitative analysis.
FIGS. 5E and 5F show the results obtained using [^125I]BIP-NMe2. FIGS. 5G and 5H show the results obtained using [^125I]BIP-OMe. FIGS. 5I and 5J show the results obtained using [^125I]BIP-Me. FIGS. 5E, 5G, and 5I show the results obtained using the brain tissue section of the frontal lobe. FIGS. 5F, 5H, and 5J show the results obtained using the brain tissue section of the temporal lobe.
Tau and Aβ were immunostained using sections adjacent to the autopsied AD brain tissue sections used in autoradiography. An anti-phosphorylated tau monoclonal antibody (AT8, manufactured by Thermo Fisher Scientific Inc.) was used as a primary antibody in the immunostaining of tau, and an anti-Aβ1-42 monoclonal antibody (BC05, manufactured by Wako Pure Chemical Industries, Ltd.) was used as a primary antibody in the immunostaining of Aβ. Deparaffinization treatment was performed by washing with xylene (15 min×2), ethanol (1 min×2), a 90 vol % aqueous ethanol solution (1 min×1), an 80 vol % aqueous ethanol solution (1 min×1), a 70 vol % aqueous ethanol solution (1 min×1), and purified water (2.5 min×2). The antigens were retrieved by autoclaving (15 min) in a 0.01 mol/L citrate buffer solution (pH 6.0) and formic acid treatment (5 min). The tissue sections were washed with running water (5 min) and then washed with PBS-Tween 20 (2 min×1). The tissue sections were reacted with primary antibody solutions at room temperature for 1 hour and then washed with PBS-Tween 20 (5 min×3). The tissue sections were reacted with Histofine Simple Stain MAX-PO (MULTI) (manufactured by Nichirei Biosciences Inc.) at room temperature for 30 minutes and then washed with PBS-Tween 20 (3 min×3) and TBS (5 min×1). Finally, the tissue sections were reacted with a DAB solution at room temperature for 1 minute. The tissue sections were washed with distilled water (1 min×1) to terminate the reaction. The brain tissue sections were mounted on slides and then observed under a microscope (BZ-9000 manufactured by Keyence Corporation).
FIGS. 5A and 5B show the results obtained using the brain tissue section of the frontal lobe. FIGS. 5C and 5D show the results obtained using the brain tissue section of the temporal lobe. FIGS. 5A and 5C show the results of immunostaining with the antibody against tau. FIGS. 5B and 5D show the results of immunostaining with the antibody against Aβ.

[2] = Evaluation of in vivo radioactivity distribution in normal mouse; settings: normal ddY male mice, tail vein; for radioactivity distribution, Blood / radioactivity distribution, Brain / radioactivity distribution, Heart / radioactivity distribution, Intestine / radioactivity distribution, Kidney / radioactivity distribution, Liver / radioactivity distribution, Lung / radioactivity distribution, Pancreas / radioactivity distribution, Spleen / radioactivity distribution, Stomach / radioactivity distribution, Thyroid gland: mean (SD)
Method: (Evaluation 2) Evaluation of In Vivo Radioactivity Distribution in Normal Mouse
Each compound of [^125I]BIP-NMe2, [^125I]BIP-OMe, and [^125I]BIP-Me synthesized according to the method shown in Example 7 was diluted with saline containing 10 vol % ethanol and 0.1 vol % Tween 80. Each radioactive iodine-labeled BIP derivative compound was administered to a group of 5-week-old ddY male mice (26 to 28 g; each group involved 5 mice) from the tail veins thereof at 19.6 to 29.4 kBq (100 μL) per mouse. After 2, 10, 30, or 60 minutes, the mice were slaughtered. After blood collection, the organs were taken out, and their weights and radioactivity were measured.
In Tables 2 to 4, the numerical values shown in the column “Time after administration” are means of % ID for the stomach and the thyroid gland and means of % ID/g for the other tissues with standard deviation (SD) shown in parenthesis.

Cc1ccn2c(c1)nc1cc([125I])ccc12 [[^125I]BIP-Me, 7-[^125I]iodo-3-methylbenzo[4,5]imidazo[1,2-a]pyridine]
radioactivity accumulation in the brain tissue section of the frontal lobe ([1]; AD patient autopsied brain section, frontal lobe, 370 kBq/mL, 2 hours room temperature): none | radioactivity accumulation in the brain tissue section of the temporal lobe ([1]; AD patient autopsied brain section, temporal lobe, 370 kBq/mL, 2 hours room temperature): exhibited radioactivity accumulation in only the brain tissue section of the temporal lobe | nonspecific binding to the brain white matter ([1]; AD patient autopsied brain sections): low | visualization of tau (autoradiography compared with tau and Aβ immunostaining) ([1]; AD patient temporal lobe section, adjacent sections immunostained (AT8, BC05)): clearly visualizes tau accumulated in the brain with AD | clearance from the brain [2]: rapid clearance from the brain | transfer to the brain early after administration [2]: high transfer to the brain | radioactivity distribution, Blood ([2]; 2 min after administration): 3.63(0.19) % ID/g | radioactivity distribution, Brain ([2]; 2 min after administration): 4.28(0.50) % ID/g | radioactivity distribution, Heart ([2]; 2 min after administration): 4.40(0.59) % ID/g | radioactivity distribution, Intestine ([2]; 2 min after administration): 3.38(0.55) % ID/g | radioactivity distribution, Kidney ([2]; 2 min after administration): 7.32(0.61) % ID/g | radioactivity distribution, Liver ([2]; 2 min after administration): 19.7(2.89) % ID/g | radioactivity distribution, Lung ([2]; 2 min after administration): 6.54(0.76) % ID/g | radioactivity distribution, Pancreas ([2]; 2 min after administration): 3.85(0.39) % ID/g | radioactivity distribution, Spleen ([2]; 2 min after administration): 4.22(0.43) % ID/g | radioactivity distribution, Stomach ([2]; 2 min after administration): 2.68(0.25) % ID | radioactivity distribution, Thyroid gland ([2]; 2 min after administration): 0.06(0.03) % ID | radioactivity distribution, Blood ([2]; 10 min after administration): 2.37(0.22) % ID/g | radioactivity distribution, Brain ([2]; 10 min after administration): 0.94(0.17) % ID/g | radioactivity distribution, Heart ([2]; 10 min after administration): 1.61(0.19) % ID/g | radioactivity distribution, Intestine ([2]; 10 min after administration): 14.2(5.56) % ID/g | radioactivity distribution, Kidney ([2]; 10 min after administration): 6.75(0.83) % ID/g | radioactivity distribution, Liver ([2]; 10 min after administration): 13.7(1.67) % ID/g | radioactivity distribution, Lung ([2]; 10 min after administration): 2.37(0.31) % ID/g | radioactivity distribution, Pancreas ([2]; 10 min after administration): 1.38(0.29) % ID/g | radioactivity distribution, Spleen ([2]; 10 min after administration): 1.94(0.29) % ID/g | radioactivity distribution, Stomach ([2]; 10 min after administration): 6.52(1.23) % ID | radioactivity distribution, Thyroid gland ([2]; 10 min after administration): 0.03(0.02) % ID | radioactivity distribution, Blood ([2]; 30 min after administration): 1.53(0.52) % ID/g | radioactivity distribution, Brain ([2]; 30 min after administration): 0.14(0.03) % ID/g | radioactivity distribution, Heart ([2]; 30 min after administration): 0.66(0.10) % ID/g | radioactivity distribution, Intestine ([2]; 30 min after administration): 19.5(2.03) % ID/g | radioactivity distribution, Kidney ([2]; 30 min after administration): 4.05(1.19) % ID/g | radioactivity distribution, Liver ([2]; 30 min after administration): 7.32(0.71) % ID/g | radioactivity distribution, Lung ([2]; 30 min after administration): 1.14(0.11) % ID/g | radioactivity distribution, Pancreas ([2]; 30 min after administration): 0.50(0.08) % ID/g | radioactivity distribution, Spleen ([2]; 30 min after administration): 0.60(0.13) % ID/g | radioactivity distribution, Stomach ([2]; 30 min after administration): 7.05(2.50) % ID | radioactivity distribution, Thyroid gland ([2]; 30 min after administration): 0.02(0.00) % ID | radioactivity distribution, Blood ([2]; 60 min after administration): 0.77(0.12) % ID/g | radioactivity distribution, Brain ([2]; 60 min after administration): 0.04(0.00) % ID/g | radioactivity distribution, Heart ([2]; 60 min after administration): 0.36(0.07) % ID/g | radioactivity distribution, Intestine ([2]; 60 min after administration): 28.7(5.09) % ID/g | radioactivity distribution, Kidney ([2]; 60 min after administration): 2.19(1.23) % ID/g | radioactivity distribution, Liver ([2]; 60 min after administration): 4.69(0.54) % ID/g | radioactivity distribution, Lung ([2]; 60 min after administration): 0.65(0.11) % ID/g | radioactivity distribution, Pancreas ([2]; 60 min after administration): 0.40(0.24) % ID/g | radioactivity distribution, Spleen ([2]; 60 min after administration): 0.36(0.10) % ID/g | radioactivity distribution, Stomach ([2]; 60 min after administration): 7.43(1.29) % ID | radioactivity distribution, Thyroid gland ([2]; 60 min after administration): 0.01(0.00) % ID
